Data taken from patent US10004701B2, “Methods and compositions for treating infection” (UNIVERSITY OF ROCHESTER, priority 2012, dated 2018).
Counter-ions that a name gives are not always drawn. Like-named read-outs stand apart in the source and are kept apart here.

Legend:
Assay in all cases: AK assay 384-well format, Prestwick library screening
E. faecium = format: cell-based, Enterococcus faecium; conditions: 50 μM final drug concentration; for fold induction at 50 µM: Enterococcus faecium, 3 h
[1] = tested on: S. aureus strain USA300-0114; format: cell-based, Staphylococcus aureus; conditions: 50 μM final drug concentration; for fold induction at 50 µM: Staphylococcus aureus, USA300, 3 h
K. pneumoniae = format: cell-based, Klebsiella pneumoniae; conditions: 50 μM final drug concentration; for fold induction at 50 µM: Klebsiella pneumoniae, 3 h
[2] = tested on: A. baumannii strain 98-37-09; format: cell-based, Acinetobacter baumannii; conditions: 50 μM final drug concentration; for fold induction at 50 µM: Acinetobacter baumannii, 983709, 3 h
P. aeruginosa = format: cell-based, Pseudomonas aeruginosa; conditions: 50 μM final drug concentration; for fold induction at 50 µM: Pseudomonas aeruginosa, 3 h
E. cloacae = format: cell-based, Enterobacter cloacae; conditions: 50 μM final drug concentration; for fold induction at 50 µM: Enterobacter cloacae, 3 h
E. coli = format: cell-based, Escherichia coli; conditions: 50 μM final drug concentration; for fold induction at 50 µM: Escherichia coli, 3 h
[3] = planktonic E. faecium, 384-well, cutoff for positive-scoring molecules 3-fold increase, read-out: AK-based Prestwick Library Screening Results: E. faecium (increase in extracellular AK activity)
[4] = planktonic S. aureus, 384-well, cutoff for positive-scoring molecules 3-fold increase, read-out: AK-based Prestwick Library Screening Results: S. aureus (increase in extracellular AK activity)
[5] = planktonic K. pneumoniae, 384-well, cutoff for positive-scoring molecules 3-fold increase, read-out: AK-based Prestwick Library Screening Results: K. pneumoniae (increase in extracellular AK activity)
[6] = planktonic A. baumannii, 384-well, cutoff for positive-scoring molecules 3-fold increase, read-out: AK-based Prestwick Library Screening Results: A. baumannii (increase in extracellular AK activity)
[7] = planktonic P. aeruginosa, 384-well, cutoff for positive-scoring molecules 3-fold increase, read-out: AK-based Prestwick Library Screening Results: P. aeruginosa (increase in extracellular AK activity)
[8] = planktonic E. cloacae, 384-well, cutoff for positive-scoring molecules 3-fold increase, read-out: AK-based Prestwick Library Screening Results: E. cloacae (increase in extracellular AK activity)
[9] = planktonic E. coli, 384-well, cutoff for positive-scoring molecules 3-fold increase, read-out: AK-based Prestwick Library Screening Results: E. coli (increase in extracellular AK activity)
[10] = cutoff for positive-scoring molecules 3-fold increase
[11] = planktonic, cutoff for positive 3-fold increase

CC(CN1c2ccccc2Sc2ccccc21)N(C)C (stereo not shown) [Promethazine hydrochloride]
fold induction at 50 µM (E. faecium; planktonic, cutoff for positive-scoring molecules 3-fold increase, read-out: AK-based Prestwick Library Screening Results, E. faecium (fold increase in extracellular AK activity)): 0.8 | fold induction at 50 µM ([1]; planktonic, cutoff for positive-scoring molecules 3-fold increase, read-out: AK-based Prestwick Library Screening Results, S. aureus (fold increase in extracellular AK activity)): 0.5 | fold induction at 50 µM (K. pneumoniae; planktonic, cutoff for positive-scoring molecules 3-fold increase, read-out: AK-based Prestwick Library Screening Results, K. pneumoniae (fold increase in extracellular AK activity)): 0.5 | fold induction at 50 µM ([2]; planktonic, cutoff for positive-scoring molecules 3-fold increase, read-out: AK-based Prestwick Library Screening Results, A. baumannii (fold increase in extracellular AK activity)): 0.6 | fold induction at 50 µM (P. aeruginosa; planktonic, cutoff for positive-scoring molecules 3-fold increase, read-out: AK-based Prestwick Library Screening Results, P. aeruginosa (fold increase in extracellular AK activity)): 0.6 | fold induction at 50 µM (E. cloacae; planktonic, cutoff for positive-scoring molecules 3-fold increase, read-out: AK-based Prestwick Library Screening Results, E. cloacae (fold increase in extracellular AK activity)): 0.5 | fold induction at 50 µM (E. coli; planktonic, cutoff for positive-scoring molecules 3-fold increase, read-out: AK-based Prestwick Library Screening Results, E. coli (fold increase in extracellular AK activity)): 0.6

CCCCc1oc2ccccc2c1C(=O)c1cc(I)c(OCCN(CC)CC)c(I)c1 [Amiodarone hydrochloride]
fold induction at 50 µM (E. faecium; [3]): 1.7 | fold induction at 50 µM [1, 4]: 0.7 | fold induction at 50 µM (K. pneumoniae; [5]): 0.6 | fold induction at 50 µM [2, 6]: 2.2 | fold induction at 50 µM (P. aeruginosa; [7]): 0.5 | fold induction at 50 µM (E. cloacae; [8]): 0.5 | fold induction at 50 µM (E. coli; [9]): 0.7

Cc1ccc(Cl)c(Nc2ccccc2C(=O)O)c1Cl
fold induction at 50 µM (E. faecium; [3]): 1.2 | fold induction at 50 µM [1, 4]: 0.6 | fold induction at 50 µM (K. pneumoniae; [5]): 1 | fold induction at 50 µM [2, 6]: 1.2 | fold induction at 50 µM (P. aeruginosa; [7]): 1.2 | fold induction at 50 µM (E. cloacae; [8]): 1.4 | fold induction at 50 µM (E. coli; [9]): 1.1

C=C(C)[C@@H]1CC[C@]2(C(=O)O)CC[C@]3(C)[C@H](CC[C@@H]4[C@@]5(C)CC[C@H](O)C(C)(C)[C@@H]5CC[C@]43C)[C@@H]12 [Betulinic acid]
fold induction at 50 µM (E. faecium; planktonic E. faecium, cutoff for positive-scoring molecules 3-fold increase, read-out: AK-based Prestwick Library Screening Results, E. faecium (increase in extracellular AK activity)): 0.9 | fold induction at 50 µM ([1]; planktonic S. aureus, cutoff for positive-scoring molecules 3-fold increase, read-out: AK-based Prestwick Library Screening Results, S. aureus (increase in extracellular AK activity)): 0.1 | fold induction at 50 µM (K. pneumoniae; planktonic K. pneumoniae, cutoff for positive-scoring molecules 3-fold increase, read-out: AK-based Prestwick Library Screening Results, K. pneumoniae (increase in extracellular AK activity)): 0.5 | fold induction at 50 µM ([2]; planktonic A. baumannii, cutoff for positive-scoring molecules 3-fold increase, read-out: AK-based Prestwick Library Screening Results, A. baumannii (increase in extracellular AK activity)): 0.6 | fold induction at 50 µM (P. aeruginosa; planktonic P. aeruginosa, cutoff for positive-scoring molecules 3-fold increase, read-out: AK-based Prestwick Library Screening Results, P. aeruginosa (increase in extracellular AK activity)): 0.6 | fold induction at 50 µM (E. cloacae; planktonic E. cloacae, cutoff for positive-scoring molecules 3-fold increase, read-out: AK-based Prestwick Library Screening Results, E. cloacae (increase in extracellular AK activity)): 0.7 | fold induction at 50 µM (E. coli; planktonic E. coli, cutoff for positive-scoring molecules 3-fold increase, read-out: AK-based Prestwick Library Screening Results, E. coli (increase in extracellular AK activity)): 0.6

Nc1[nH]c(=O)ncc1F [Flucytosine]
fold induction at 50 µM (E. faecium; cutoff for positive-scoring molecules 3-fold increase, read-out: AK-based Prestwick Library Screening Results, E. faecium (fold increase in extracellular AK activity)): 0.9 | fold induction at 50 µM ([1]; cutoff for positive-scoring molecules 3-fold increase, read-out: AK-based Prestwick Library Screening Results, S. aureus (fold increase in extracellular AK activity)): 1.1 | fold induction at 50 µM (K. pneumoniae; cutoff for positive-scoring molecules 3-fold increase, read-out: AK-based Prestwick Library Screening Results, K. pneumoniae (fold increase in extracellular AK activity)): 0.8 | fold induction at 50 µM ([2]; cutoff for positive-scoring molecules 3-fold increase, read-out: AK-based Prestwick Library Screening Results, A. baumannii (fold increase in extracellular AK activity)): 1.2 | fold induction at 50 µM (P. aeruginosa; cutoff for positive-scoring molecules 3-fold increase, read-out: AK-based Prestwick Library Screening Results, P. aeruginosa (fold increase in extracellular AK activity)): 1.1 | fold induction at 50 µM (E. cloacae; cutoff for positive-scoring molecules 3-fold increase, read-out: AK-based Prestwick Library Screening Results, E. cloacae (fold increase in extracellular AK activity)): 1.8 | fold induction at 50 µM (E. coli; cutoff for positive-scoring molecules 3-fold increase, read-out: AK-based Prestwick Library Screening Results, E. coli (fold increase in extracellular AK activity)): 1.1

Retrorsine
AK-based Prestwick Library Screening Results, E. faecium (fold increase in extracellular AK activity) (E. faecium; planktonic, […]): 1.0 | AK-based Prestwick Library Screening Results, S. aureus (fold increase in extracellular AK activity) ([1]; planktonic, […]): 1.2 | AK-based Prestwick Library Screening Results, K. pneumoniae (fold increase in extracellular AK activity) (K. pneumoniae; planktonic, […]): 1.2 | AK-based Prestwick Library Screening Results, A. baumannii (fold increase in extracellular AK activity) ([2]; planktonic, […]): 1.2 | AK-based Prestwick Library Screening Results, P. aeruginosa (fold increase in extracellular AK activity) (P. aeruginosa; planktonic, […]): 1.2 | AK-based Prestwick Library Screening Results, E. cloacae (fold increase in extracellular AK activity) (E. cloacae; planktonic, […]): 1.5 | AK-based Prestwick Library Screening Results, E. coli (fold increase in extracellular AK activity) (E. coli; planktonic, […]): 1.3

Cc1c(N(C)CS(=O)(=O)[O-])c(=O)n(-c2ccccc2)n1C.[Na+] [Dipyrone]
AK-based Prestwick Library Screening Results, E. faecium (fold increase in extracellular AK activity) (E. faecium; [10]): 1.0 | AK-based Prestwick Library Screening Results, S. aureus (fold increase in extracellular AK activity) [1, 10]: 1.4 | AK-based Prestwick Library Screening Results, K. pneumoniae (fold increase in extracellular AK activity) (K. pneumoniae; [10]): 1.1 | AK-based Prestwick Library Screening Results, A. baumannii (fold increase in extracellular AK activity) [2, 10]: 1.1 | AK-based Prestwick Library Screening Results, P. aeruginosa (fold increase in extracellular AK activity) (P. aeruginosa; [10]): 1.1 | AK-based Prestwick Library Screening Results, E. cloacae (fold increase in extracellular AK activity) (E. cloacae; [10]): 1.4 | AK-based Prestwick Library Screening Results, E. coli (fold increase in extracellular AK activity) (E. coli; [10]): 1.1

OCCN1CCN(CCCN2c3ccccc3Sc3ccc(Cl)cc32)CC1 [Perphenazine]
fold induction at 50 µM (E. faecium; 384-well format, cutoff for positive-scoring molecules 3-fold increase, read-out: AK-based Prestwick Library Screening Results, E. faecium (increase in extracellular AK activity)): 1.2 | fold induction at 50 µM ([1]; 384-well format, cutoff for positive-scoring molecules 3-fold increase, read-out: AK-based Prestwick Library Screening Results, S. aureus (increase in extracellular AK activity)): 0.9 | fold induction at 50 µM (K. pneumoniae; 384-well format, cutoff for positive-scoring molecules 3-fold increase, read-out: AK-based Prestwick Library Screening Results, K. pneumoniae (increase in extracellular AK activity)): 1.3 | fold induction at 50 µM ([2]; 384-well format, cutoff for positive-scoring molecules 3-fold increase, read-out: AK-based Prestwick Library Screening Results, A. baumannii (increase in extracellular AK activity)): 1.6 | fold induction at 50 µM (P. aeruginosa; 384-well format, cutoff for positive-scoring molecules 3-fold increase, read-out: AK-based Prestwick Library Screening Results, P. aeruginosa (increase in extracellular AK activity)): 1.1 | fold induction at 50 µM (E. cloacae; 384-well format, cutoff for positive-scoring molecules 3-fold increase, read-out: AK-based Prestwick Library Screening Results, E. cloacae (increase in extracellular AK activity)): 1.4 | fold induction at 50 µM (E. coli; 384-well format, cutoff for positive-scoring molecules 3-fold increase, read-out: AK-based Prestwick Library Screening Results, E. coli (increase in extracellular AK activity)): 1.5

COc1cc2c3cc1Oc1cc(ccc1O)C[C@@H]1c4c(cc(OC)c(O)c4Oc4ccc(cc4)C[C@@H]3N(C)CC2)CC[N+]1(C)C.Cl.O.O.O.O.O.[Cl-] [Tubocurarine chloride pentahydrate (+)]
AK-based Prestwick Library Screening Results: E. faecium (increase in extracellular AK activity) (E. faecium; planktonic E. faecium, 384-well, […]): 0.9 | AK-based Prestwick Library Screening Results: S. aureus (increase in extracellular AK activity) ([1]; planktonic S. aureus, 384-well, […]): 0.5 | AK-based Prestwick Library Screening Results: K. pneumoniae (increase in extracellular AK activity) (K. pneumoniae; planktonic K. pneumoniae, 384-well, […]): 0.6 | AK-based Prestwick Library Screening Results: A. baumannii (increase in extracellular AK activity) ([2]; planktonic A. baumannii, 384-well, […]): 0.7 | AK-based Prestwick Library Screening Results: P. aeruginosa (increase in extracellular AK activity) (P. aeruginosa; planktonic P. aeruginosa, 384-well, […]): 0.6 | AK-based Prestwick Library Screening Results: E. cloacae (increase in extracellular AK activity) (E. cloacae; planktonic E. cloacae, 384-well, […]): 0.6 | AK-based Prestwick Library Screening Results: E. coli (increase in extracellular AK activity) (E. coli; planktonic E. coli, 384-well, […]): 0.7

C=C[C@H]1CN2CC[C@H]1C[C@H]2[C@H](O)c1ccnc2ccccc12 [(−)-Cinchonidine]
AK-based Prestwick Library Screening Results, E. faecium (fold increase in extracellular AK activity) (E. faecium; [11]): 1.0 | AK-based Prestwick Library Screening Results, S. aureus (fold increase in extracellular AK activity) [1, 11]: 0.9 | AK-based Prestwick Library Screening Results, K. pneumoniae (fold increase in extracellular AK activity) (K. pneumoniae; [11]): 0.8 | AK-based Prestwick Library Screening Results, A. baumannii (fold increase in extracellular AK activity) [2, 11]: 1.1 | AK-based Prestwick Library Screening Results, P. aeruginosa (fold increase in extracellular AK activity) (P. aeruginosa; [11]): 1.1 | AK-based Prestwick Library Screening Results, E. cloacae (fold increase in extracellular AK activity) (E. cloacae; [11]): 1.6 | AK-based Prestwick Library Screening Results, E. coli (fold increase in extracellular AK activity) (E. coli; [11]): 1.3
